Key:
[1] = molecular target: ATP-dependent RNA helicase DHX15 (Homo sapiens) (UniProt O43143)
[2] = molecular target: Splicing factor 3B subunit 1 (Homo sapiens) (UniProt O75533)
[3] = molecular target: Integrin beta-4 (Homo sapiens) (UniProt P16144)
[4] = molecular target: Coronin-1A (Homo sapiens) (UniProt P31146)
[5] = molecular target: Signal recognition particle subunit SRP68 (Homo sapiens) (UniProt Q9UHB9)
[6] = molecular target: Fibroblast growth factor receptor 1 (Homo sapiens) (UniProt P11362)
[7] = molecular target: Interleukin-1 receptor-associated kinase 3 (Homo sapiens) (UniProt Q9Y616)
[8] = molecular target: Cytoplasmic dynein 1 light intermediate chain 1 (Homo sapiens) (UniProt Q9Y6G9)
[9] = molecular target: Enoyl-CoA delta isomerase 1, mitochondrial (Homo sapiens) (UniProt P42126)
[10] = molecular target: Mitogen-activated protein kinase kinase kinase 2 (Homo sapiens) (UniProt Q9Y2U5)
[11] = molecular target: Transportin-3 (Homo sapiens) (UniProt Q9Y5L0)
[12] = molecular target: TAR DNA-binding protein 43 (Homo sapiens) (UniProt Q13148)
[13] = molecular target: 5'-AMP-activated protein kinase catalytic subunit alpha-1 (Homo sapiens) (UniProt Q13131)
[14] = molecular target: Calcium/calmodulin-dependent protein kinase type II subunit beta (Homo sapiens) (UniProt Q13554)
[15] = molecular target: Large ribosomal subunit protein eL24 (Homo sapiens) (UniProt P83731)
[16] = molecular target: Ethanolaminephosphotransferase 1 (Homo sapiens) (UniProt Q9C0D9)
[17] = molecular target: High affinity nerve growth factor receptor (Homo sapiens) (UniProt P04629)
[18] = molecular target: Fructosamine-3-kinase (Homo sapiens) (UniProt Q9H479)
[19] = molecular target: DNA repair protein RAD50 (Homo sapiens) (UniProt Q92878)
[20] = molecular target: Transmembrane protein 33 (Homo sapiens) (UniProt P57088)
[21] = molecular target: Elongation factor 2 (Homo sapiens) (UniProt P13639)
[22] = molecular target: Peroxiredoxin-6 (Homo sapiens) (UniProt P30041)
[23] = molecular target: Serine-protein kinase ATM (Homo sapiens) (UniProt Q13315)
[24] = molecular target: Cell division cycle 5-like protein (Homo sapiens) (UniProt Q99459)
[25] = molecular target: EKC/KEOPS complex subunit TP53RK (Homo sapiens) (UniProt Q96S44)
[26] = molecular target: Translation initiation factor eIF2B subunit delta (Homo sapiens) (UniProt Q9UI10)
[27] = molecular target: Calponin-2 (Homo sapiens) (UniProt Q99439)
[28] = molecular target: Calcium-binding protein 39 (Homo sapiens) (UniProt Q9Y376)
[29] = molecular target: DNA replication licensing factor MCM4 (Homo sapiens) (UniProt P33991)
[30] = molecular target: ATP-dependent 6-phosphofructokinase, platelet type (Homo sapiens) (UniProt Q01813)
Kinectin (Homo sapiens) = Kinectin (Homo sapiens) (UniProt Q86UP2)
[31] = molecular target: Endoplasmin (Homo sapiens) (UniProt P14625)
[32] = molecular target: Cytochrome c oxidase subunit NDUFA4 (Homo sapiens) (UniProt O00483)
[33] = molecular target: V-type proton ATPase subunit H (Homo sapiens) (UniProt Q9UI12)
[34] = molecular target: High mobility group protein B1 (Homo sapiens) (UniProt P09429)
[35] = molecular target: Myosin light chain kinase, smooth muscle (Homo sapiens) (UniProt Q15746)
Fascin (Homo sapiens) = Fascin (Homo sapiens) (UniProt Q16658)
[36] = molecular target: Lon protease homolog, mitochondrial (Homo sapiens) (UniProt P36776)
[37] = molecular target: Tubulin-specific chaperone D (Homo sapiens) (UniProt Q9BTW9)
[38] = molecular target: Actin-like protein 6A (Homo sapiens) (UniProt O96019)
[39] = molecular target: Nucleoprotein TPR (Homo sapiens) (UniProt P12270)
[40] = molecular target: Phosphoenolpyruvate carboxykinase [GTP], mitochondrial (Homo sapiens) (UniProt Q16822)
[41] = molecular target: Very-long-chain enoyl-CoA reductase (Homo sapiens) (UniProt Q9NZ01)
Plectin (Homo sapiens) = Plectin (Homo sapiens) (UniProt Q15149)
[42] = molecular target: Adenosine 5'-monophosphoramidase HINT1 (Homo sapiens) (UniProt P49773)
[43] = molecular target: Eukaryotic translation initiation factor 3 subunit I (Homo sapiens) (UniProt Q13347)
Note: assay method not described here.

Sequence of Eukaryotic translation initiation factor 3 subunit I (Homo sapiens) (Q13347 whole entry): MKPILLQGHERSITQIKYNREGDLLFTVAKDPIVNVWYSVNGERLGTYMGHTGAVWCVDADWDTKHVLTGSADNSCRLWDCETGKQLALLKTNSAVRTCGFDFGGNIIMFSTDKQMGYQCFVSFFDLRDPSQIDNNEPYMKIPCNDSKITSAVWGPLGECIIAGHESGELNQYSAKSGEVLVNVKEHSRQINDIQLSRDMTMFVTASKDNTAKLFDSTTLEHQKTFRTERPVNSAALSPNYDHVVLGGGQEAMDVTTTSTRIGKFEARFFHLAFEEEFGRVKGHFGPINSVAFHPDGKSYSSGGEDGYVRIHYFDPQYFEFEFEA
Sequence of Translation initiation factor eIF2B subunit delta (Homo sapiens) (Q9UI10 whole entry): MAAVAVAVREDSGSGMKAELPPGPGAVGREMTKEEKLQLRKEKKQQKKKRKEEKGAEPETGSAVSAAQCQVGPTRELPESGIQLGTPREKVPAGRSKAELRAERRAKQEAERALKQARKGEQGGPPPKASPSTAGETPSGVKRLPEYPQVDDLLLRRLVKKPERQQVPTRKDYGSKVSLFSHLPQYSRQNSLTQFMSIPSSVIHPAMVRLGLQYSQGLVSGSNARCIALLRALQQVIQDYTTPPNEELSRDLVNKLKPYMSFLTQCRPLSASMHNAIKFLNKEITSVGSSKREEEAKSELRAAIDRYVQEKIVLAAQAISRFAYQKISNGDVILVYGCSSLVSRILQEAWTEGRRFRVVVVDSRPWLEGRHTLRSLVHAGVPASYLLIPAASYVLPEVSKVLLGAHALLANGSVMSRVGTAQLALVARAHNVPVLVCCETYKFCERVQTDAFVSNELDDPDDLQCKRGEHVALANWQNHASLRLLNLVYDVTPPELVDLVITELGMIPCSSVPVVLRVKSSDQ
Sequence of Mitogen-activated protein kinase kinase kinase 2 (Homo sapiens) (Q9Y2U5 whole entry): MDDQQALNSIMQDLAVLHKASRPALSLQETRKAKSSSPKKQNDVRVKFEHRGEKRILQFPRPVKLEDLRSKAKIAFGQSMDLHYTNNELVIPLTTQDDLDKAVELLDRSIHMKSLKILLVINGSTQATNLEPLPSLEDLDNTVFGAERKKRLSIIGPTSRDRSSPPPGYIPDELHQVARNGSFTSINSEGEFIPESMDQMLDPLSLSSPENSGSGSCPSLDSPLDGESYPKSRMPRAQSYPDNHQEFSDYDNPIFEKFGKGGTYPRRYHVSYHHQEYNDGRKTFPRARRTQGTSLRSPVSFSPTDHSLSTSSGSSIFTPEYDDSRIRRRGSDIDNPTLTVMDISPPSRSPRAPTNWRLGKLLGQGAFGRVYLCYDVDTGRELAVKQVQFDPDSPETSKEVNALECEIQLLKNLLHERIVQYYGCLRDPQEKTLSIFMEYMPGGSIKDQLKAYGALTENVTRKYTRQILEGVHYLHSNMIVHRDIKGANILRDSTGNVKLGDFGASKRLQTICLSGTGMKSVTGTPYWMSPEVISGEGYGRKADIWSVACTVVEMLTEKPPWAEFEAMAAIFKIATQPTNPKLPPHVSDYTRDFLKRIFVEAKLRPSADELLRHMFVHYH
Sequence of EKC/KEOPS complex subunit TP53RK (Homo sapiens) (Q96S44 whole entry, one chain of several): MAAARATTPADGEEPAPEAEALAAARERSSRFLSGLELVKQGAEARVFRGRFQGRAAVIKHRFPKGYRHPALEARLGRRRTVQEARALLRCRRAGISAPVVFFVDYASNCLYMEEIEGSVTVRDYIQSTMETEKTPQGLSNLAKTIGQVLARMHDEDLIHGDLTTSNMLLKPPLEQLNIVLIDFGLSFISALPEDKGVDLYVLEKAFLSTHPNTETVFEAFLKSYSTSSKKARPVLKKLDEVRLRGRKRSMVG
Sequence of ATP-dependent RNA helicase DHX15 (Homo sapiens) (O43143 whole entry): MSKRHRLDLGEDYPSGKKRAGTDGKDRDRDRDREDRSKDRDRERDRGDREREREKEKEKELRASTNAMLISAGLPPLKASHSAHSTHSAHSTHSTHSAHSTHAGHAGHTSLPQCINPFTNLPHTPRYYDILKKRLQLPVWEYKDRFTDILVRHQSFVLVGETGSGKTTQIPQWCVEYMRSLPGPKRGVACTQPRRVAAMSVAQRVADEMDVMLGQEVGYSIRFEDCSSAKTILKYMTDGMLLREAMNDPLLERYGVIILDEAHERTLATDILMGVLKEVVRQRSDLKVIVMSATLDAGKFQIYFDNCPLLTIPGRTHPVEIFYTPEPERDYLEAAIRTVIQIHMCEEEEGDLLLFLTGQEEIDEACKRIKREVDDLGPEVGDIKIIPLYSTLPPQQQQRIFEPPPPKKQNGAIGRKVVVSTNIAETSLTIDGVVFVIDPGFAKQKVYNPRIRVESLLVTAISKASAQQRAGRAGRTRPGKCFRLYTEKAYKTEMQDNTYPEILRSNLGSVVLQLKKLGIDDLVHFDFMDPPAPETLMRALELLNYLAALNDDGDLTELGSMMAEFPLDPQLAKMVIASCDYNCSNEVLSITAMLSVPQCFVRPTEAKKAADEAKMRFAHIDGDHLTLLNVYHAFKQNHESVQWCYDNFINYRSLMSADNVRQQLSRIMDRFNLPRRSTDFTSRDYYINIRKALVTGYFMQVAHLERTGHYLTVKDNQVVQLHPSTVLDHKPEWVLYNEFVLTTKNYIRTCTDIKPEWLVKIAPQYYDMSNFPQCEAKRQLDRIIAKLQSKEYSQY
Sequence of Peroxiredoxin-6 (Homo sapiens) (P30041 whole entry): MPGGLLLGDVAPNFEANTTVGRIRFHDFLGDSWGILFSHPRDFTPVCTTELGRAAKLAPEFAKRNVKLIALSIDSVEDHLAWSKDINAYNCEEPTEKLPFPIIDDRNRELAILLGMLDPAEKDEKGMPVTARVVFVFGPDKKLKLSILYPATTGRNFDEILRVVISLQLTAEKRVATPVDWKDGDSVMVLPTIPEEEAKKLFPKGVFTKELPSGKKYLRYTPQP
Sequence of Actin-like protein 6A (Homo sapiens) (O96019 whole entry): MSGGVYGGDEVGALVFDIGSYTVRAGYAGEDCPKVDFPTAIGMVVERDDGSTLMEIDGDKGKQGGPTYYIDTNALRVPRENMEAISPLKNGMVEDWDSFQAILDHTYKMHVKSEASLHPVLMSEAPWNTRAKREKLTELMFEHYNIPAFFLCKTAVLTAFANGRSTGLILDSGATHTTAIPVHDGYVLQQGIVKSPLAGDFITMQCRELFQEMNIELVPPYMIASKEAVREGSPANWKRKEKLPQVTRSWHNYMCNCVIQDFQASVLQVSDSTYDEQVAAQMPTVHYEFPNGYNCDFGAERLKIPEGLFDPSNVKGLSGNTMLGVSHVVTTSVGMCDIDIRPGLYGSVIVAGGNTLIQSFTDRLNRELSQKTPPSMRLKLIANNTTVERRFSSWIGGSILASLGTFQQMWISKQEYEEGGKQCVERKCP
Sequence of High affinity nerve growth factor receptor (Homo sapiens) (P04629 33-796 limits assumed): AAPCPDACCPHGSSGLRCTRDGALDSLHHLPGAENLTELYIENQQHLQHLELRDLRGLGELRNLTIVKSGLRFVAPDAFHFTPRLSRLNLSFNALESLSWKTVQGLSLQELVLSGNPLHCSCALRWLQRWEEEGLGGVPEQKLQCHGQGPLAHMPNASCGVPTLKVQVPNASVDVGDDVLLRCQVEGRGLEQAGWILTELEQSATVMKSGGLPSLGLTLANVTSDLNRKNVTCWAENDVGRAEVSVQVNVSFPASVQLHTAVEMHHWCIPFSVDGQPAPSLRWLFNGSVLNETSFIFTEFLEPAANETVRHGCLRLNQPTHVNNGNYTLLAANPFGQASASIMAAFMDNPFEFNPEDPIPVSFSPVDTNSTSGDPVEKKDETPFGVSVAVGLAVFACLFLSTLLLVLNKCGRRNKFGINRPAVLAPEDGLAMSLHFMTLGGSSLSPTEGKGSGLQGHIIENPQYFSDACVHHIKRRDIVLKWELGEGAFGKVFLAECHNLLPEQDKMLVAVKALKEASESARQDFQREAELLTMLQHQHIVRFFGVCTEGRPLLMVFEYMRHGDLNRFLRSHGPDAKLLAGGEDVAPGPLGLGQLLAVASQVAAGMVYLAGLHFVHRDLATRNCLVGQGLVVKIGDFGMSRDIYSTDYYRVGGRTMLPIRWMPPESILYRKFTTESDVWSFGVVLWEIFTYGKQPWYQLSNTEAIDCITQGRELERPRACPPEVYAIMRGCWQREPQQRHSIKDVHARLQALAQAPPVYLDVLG
Sequence of Fructosamine-3-kinase (Homo sapiens) (Q9H479 whole entry): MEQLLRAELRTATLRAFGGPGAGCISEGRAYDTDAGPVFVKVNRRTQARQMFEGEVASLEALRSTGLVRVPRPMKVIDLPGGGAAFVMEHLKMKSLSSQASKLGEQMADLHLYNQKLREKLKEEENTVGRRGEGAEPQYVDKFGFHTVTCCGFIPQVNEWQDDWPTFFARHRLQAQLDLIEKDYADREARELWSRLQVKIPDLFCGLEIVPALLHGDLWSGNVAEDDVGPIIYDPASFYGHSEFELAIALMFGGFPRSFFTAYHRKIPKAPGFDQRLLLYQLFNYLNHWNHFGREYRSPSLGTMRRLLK
Sequence of Adenosine 5'-monophosphoramidase HINT1 (Homo sapiens) (P49773 whole entry): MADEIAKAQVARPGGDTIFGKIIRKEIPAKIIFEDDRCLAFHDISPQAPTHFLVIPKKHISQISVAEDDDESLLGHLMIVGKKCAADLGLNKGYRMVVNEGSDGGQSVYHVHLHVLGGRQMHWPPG
Sequence of 5'-AMP-activated protein kinase catalytic subunit alpha-1 (Homo sapiens) (Q13131 whole entry, looked up): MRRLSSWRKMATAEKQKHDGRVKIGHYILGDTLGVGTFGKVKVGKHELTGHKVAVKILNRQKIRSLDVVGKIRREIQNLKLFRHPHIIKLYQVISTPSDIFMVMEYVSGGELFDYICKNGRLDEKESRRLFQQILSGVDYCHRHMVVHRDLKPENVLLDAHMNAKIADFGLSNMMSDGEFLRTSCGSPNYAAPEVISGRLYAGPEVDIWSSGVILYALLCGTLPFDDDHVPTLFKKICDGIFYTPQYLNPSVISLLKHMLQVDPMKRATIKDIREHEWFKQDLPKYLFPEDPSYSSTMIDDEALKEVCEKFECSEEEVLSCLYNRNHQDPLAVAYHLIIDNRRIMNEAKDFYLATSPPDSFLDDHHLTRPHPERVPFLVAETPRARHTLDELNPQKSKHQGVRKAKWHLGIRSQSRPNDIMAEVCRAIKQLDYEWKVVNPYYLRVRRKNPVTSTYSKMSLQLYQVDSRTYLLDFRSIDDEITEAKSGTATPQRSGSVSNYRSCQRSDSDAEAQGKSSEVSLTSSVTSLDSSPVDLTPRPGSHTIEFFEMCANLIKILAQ

`Cc1ccc(C(=O)Nc2cccc(C(F)(F)F)c2)cc1Nc1nc(-c2cccnc2)nc2c1cnn2C` was tested, and the ED50 [1] was 0.372 µM, the ED50 (Homo sapiens) was 0.878 µM and the ED50 [2] was 2.85 µM. It also gave an ED50 [3] of 3.51 µM, an ED50 [4] of 16.5 µM and an ED50 [5] of 4.09 µM. It also gave an ED50 [6] of 11.2 µM, an ED50 [7] of 1.34 µM and an ED50 [8] of 0.0244 µM. For the same compound, the ED50 [9] was 5.02 µM, the ED50 [10] was 0.1 µM and the ED50 [11] was 19 µM. It also gave an ED50 [12] of 0.814 µM, an ED50 [13] of 13.2 µM and an ED50 [14] of 17.4 µM. For the same compound, the ED50 [15] was 10.3 µM, the ED50 [16] was 1.54 µM and the ED50 [17] was 0.0169 µM. The ED50 [18] was 7.31 µM, the ED50 [19] was 8.82 µM and the ED50 [20] was 4.89 µM. It also gave an ED50 [21] of 4.03 µM, an ED50 [22] of 66.2 µM and an ED50 [23] of 8680 µM. The ED50 [24] was 9.84 µM, the ED50 [25] was 3.47 µM and the ED50 [26] was 9.56 µM. The ED50 [27] was 85.5 µM, the ED50 [28] was 0.157 µM and the ED50 [29] was 73.3 µM. For the same compound, the ED50 [30] was 9.49 µM, the ED50 (Kinectin (Homo sapiens)) was 4.85 µM and the ED50 [31] was 3.47 µM. It also gave an ED50 [32] of 13.5 µM, an ED50 [33] of 0.00175 µM and an ED50 [34] of 3.01 µM. For the same compound, the ED50 [35] was 0.247 µM, the ED50 (Fascin (Homo sapiens)) was 0.0186 µM and the ED50 [36] was 0.575 µM. The ED50 [37] was 0.00459 µM, the ED50 [38] was 3.26 µM and the ED50 [39] was 10.4 µM. For the same compound, the ED50 [40] was 0.398 µM, the ED50 [41] was 3.86 µM and the ED50 (Plectin (Homo sapiens)) was 11.9 µM. The ED50 [42] was 0.00551 µM and the ED50 [43] was 0.108 µM.

Work on `Cc1ccc(C(=O)Nc2cccc(C(F)(F)F)c2)cc1Nc1nc(-c2cccnc2)nc2nn(C)cc12` yielded an ED50 [1] of 23 µM, an ED50 (Homo sapiens) of 0.217 µM and an ED50 [2] of 3 µM. For the same compound, the ED50 [3] was 825 µM, the ED50 [4] was 0.0507 µM and the ED50 [5] was 0.0188 µM. For the same compound, the ED50 [6] was 0.0526 µM, the ED50 [7] was 0.0262 µM and the ED50 [8] was 0.897 µM. The ED50 [9] was 64 µM, the ED50 [10] was 9.44 µM and the ED50 [11] was 0.669 µM. The ED50 [12] was 0.176 µM, the ED50 [13] was 0.0591 µM and the ED50 [14] was 0.0059 µM. It also gave an ED50 [15] of 27 µM, an ED50 [16] of 0.809 µM and an ED50 [17] of 0.773 µM. The ED50 [18] was 0.291 µM, the ED50 [19] was 1.74 µM and the ED50 [20] was 0.0053 µM. The ED50 [21] was 12.5 µM, the ED50 [22] was 0.0611 µM and the ED50 [23] was 1.99 µM. The ED50 [24] was 0.0985 µM, the ED50 [25] was 0.485 µM and the ED50 [26] was 0.308 µM. For the same compound, the ED50 [27] was 79.2 µM, the ED50 [28] was 0.00782 µM and the ED50 [29] was 0.0763 µM. For the same compound, the ED50 [30] was 0.00571 µM, the ED50 (Kinectin (Homo sapiens)) was 0.466 µM and the ED50 [31] was 0.0559 µM. For the same compound, the ED50 [32] was 70.3 µM, the ED50 [33] was 2.38 µM and the ED50 [34] was 0.0503 µM. It also gave an ED50 [35] of 0.00038 µM, an ED50 (Fascin (Homo sapiens)) of 0.348 µM and an ED50 [36] of 0.0644 µM. The ED50 [37] was 0.00542 µM, the ED50 [38] was 12.6 µM and the ED50 [39] was 7.76 µM. It also gave an ED50 [40] of 0.429 µM, an ED50 [41] of 1.31 µM and an ED50 (Plectin (Homo sapiens)) of 0.011 µM. For the same compound, the ED50 [42] was 0.318 µM and the ED50 [43] was 35.5 µM.
